Measured values reported in patent publication US6447988B2, “In vitro assay method for the study of brain aging” (The Regents of the University of California, priority 1997, dated 2002).

Key:
[1] = tested on: hippocampal slices; details: cited from earlier work
[2] = tested on: hippocampal slices; test: Western blot analyses of cultured hippocampal slices exposed to ZPAD; type: cell-based, Sprague-Dawley rats; details: for replication of ZPAD-induced alterations by more selective inhibitors of cathepsin L: cultured brain slices
Description: (§1) Hippocampal slices were prepared from 10-13 day-old Sprague-Dawley rats and maintained in culture using the method of Stoppini et al. (1991, supra). Briefly, the hippocampi were dissected in ice-cold artificial cerebrospinal fluid (124 mM NaCl, 10 mM glucose, 3 mM KCl, 1.25 mM KH2PO4, 4 mM MgSO4, 2 mM CaCl2, 26 mM NaHCO3, 2 mM ascorbate, 0.1 mM ascorbate, pH=7.3), and 400 μm thick slices were produced on a McIlwain tissue chopper. One ml of culture media (50% Basal Medium Eagle, 25% Earle's Balance Salt Solution, 25% horse serum), supplemented with 136 mM NaCl, 2 mM CaCl2, 2.5 mM MgSO4, 5 mM NaHCO3 3 mM glutamine, 40 mM glucose, 0.5 mM ascorbic acid, 20 mM HEPES (pH=7.3), 1 mg/L insulin, 5 U/ml penicillin and 5 mg/L streptomycin, was added to each well of a six well culture plate, and inserts containing a polystyrene membrane (pore size: […]) were placed in each well to support the hippocampal sections. Slices were incubated in a humidified, 37° C. atmosphere containing 5% CO2 and maintained in culture for at least nine days before experiments were initiated. Media was replenished on the first day after explantation, and every 2-3 days during the initial culture period. A subset of the hippocampal slices in the six-well culture dishes was exposed to media (as described above, with heat-treated horse serum) containing 30-50 μM ZPAD (BACHEM Bioscience, Inc., Torrance, Calif.). Tissue was harvested after three to six days of continuous ZPAD exposure.

[3] = tested on: cathepsin D mRNA; test: In situ hybridization for cathepsin D mRNA in cultured hippocampal slices; type: cell-based, Sprague-Dawley rats; details: four days of exposure to 45 μM ZPAD
Description: as §1, with “Tissue was harvested after three to six days of continuous ZPAD exposure.” left out

[4] = tested on: hippocampal slices; test: Electron microscopy of cultured hippocampal slices treated with ZPAD; type: cell-based, Sprague-Dawley rats
Description: as §1
Furthermore, lysosomes in CA1 and CA3 pyramidal cells were not restricted to the soma but instead were located throughout dendritic processes. Clusters of lysosomes were commonly found within bulging segments of proximal dendrites that were notable for an absence of nicrotubules and neurofilaments. […] These appendages are similar in form and content to structures previously referred to as “meganeurites.” While pyknotic nuclei were sometimes encountered, most of the cells in slices exposed to ZPAD for six days appeared relatively normal. […]

[5] = chloroquine treatment of long-term hippocampal slices
[6] = 45 μM ZPAD for six days, electron microscope

CCN(CC)CCCC(C)Nc1ccnc2cc(Cl)ccc12 (centres unmarked) [chloroquine]
carboxy-terminal fragments of the amyloid precursor protein (APP) [1, 5]: appearance
synaptophysin [1, 5]: loss

CC(C)C[C@H](NC(=O)[C@@H](NC(=O)N[C@@H](Cc1ccccc1)C(=O)O)[C@@H]1CCN=C(N)N1)C(=O)N[C@H](C=O)Cc1ccccc1 [chymostatin]
replication of ZPAD-induced alterations by more selective inhibitors of cathepsin L [2]: replicated several of the ZPAD-induced alterations

C=C(C)[C@H]1CN[C@H](C(=O)O)[C@H]1CC(=O)O [kainic acid]
rate of build-up of β-amyloid-containing fragments and loss of synaptophysin ([1]; pre-treatment with kainic acid before chloroquine): more rapid

N-CBZ-L-phenylalanyl-L-alanine-diazomethylketone [ZPAD]
levels of 25-30 kDa fragments of amyloid precursor protein ([2]; 45 μM ZPAD for six days, Western blot): increased levels
levels of active cathepsin D protein in lysosomal and non-lysosomal (cytosolic) compartments ([2]; Western blots of subcellular fractions of ZPAD-exposed slices): markedly elevated levels
increase in the protein level of cathepsin D ([2]; slices exposed to 30-50 μM ZPAD for three to six days, Western blot, p<0.001, n=8): 3 fold
degradation of cytoskeletal proteins ([2]; slices exposed to 30-50 μM ZPAD for three to six days, Western blot, tubulin, spectrin, microtubule-associated protein-2, tau): proteolytic degradation of four cytoskeletal proteins
increase in the level of cathepsin D mRNA, CA3 neurons ([3]; CA3 neurons): 56%
increase in the level of cathepsin D mRNA, glial cells of subfield CA1 stratum radiatum ([3]; p<0.01): 71%
meganeurite formation on CA1 neurons [4, 6]: a small percentage of CA1 neurons
number of lysosomes in the perikarya of neurons and glia [4, 6]: dramatic increase
meganeurite-containing CA1 pyramidal cells after washout ([4]; ZPAD for six days, then seven additional days in culture without ZPAD): more commonly found

N-CBZ-L-phenylalanyl-L-phenylalanine-diazomethylketone
replication of ZPAD-induced alterations by more selective inhibitors of cathepsin L [2]: replicated several of the ZPAD-induced alterations
